Data published in ChEMBL document CHEMBL3632520, “Correlation of antioxidant activities with theoretical studies for new hydrazone compounds bearing a 3,4,5-trimethoxy benzyl moiety” (Eur J Med Chem, 2015).
≈ marks a conversion by molar mass, not a printed value.

How the values were obtained:
Format in all cases: physicochemical
[1] = Antioxidant activity assessed as ferric ion reducing activity using fe3+-TPTZ assessed as fe2+-TPTZ formation after 30 mins by FRAP assay; conditions: 0.5 h
[2] = Antioxidant activity assessed as DPPH radical scavenging activity measured as discoloration incubated for 30 mins in dark relative to control; conditions: 0.5 h
[3] = Antioxidant activity assessed as DPPH radical scavenging activity measured as discoloration incubated for 30 mins in dark

Row | Activity [1] [µM] | inhibition (INH) [2] [%] | IC50 [3] [µg/mL] | Structure (SMILES)
1 | 27 | 10.8 | > 100 | CCOC(=O)c1ccc(OCc2cc(OC)c(OC)c(OC)c2)cc1
2 | 3515 | 37.2 | 264 (≈ 794 µM) | COc1cc(COc2ccc(C(=O)NN)cc2)cc(OC)c1OC
3 | 125 | 15.6 | > 100 | COc1cc(COc2ccc(C(=O)N/N=C/c3cc(Br)cc(Cl)c3O)cc2)cc(OC)c1OC
4 | 1096 | 75.3 | 62 (≈ 113 µM) | COc1cc(COc2ccc(C(=O)N/N=C/c3cc(C(C)(C)C)c(O)c(C(C)(C)C)c3)cc2)cc(OC)c1OC
5 | 2087 | 57.9 | 75 (≈ 151 µM) | COc1cc(/C=N/NC(=O)c2ccc(OCc3cc(OC)c(OC)c(OC)c3)cc2)cc(OC)c1O
6 | 1844 | 53.3 | 106 (≈ 221 µM) | CCOc1cc(/C=N/NC(=O)c2ccc(OCc3cc(OC)c(OC)c(OC)c3)cc2)ccc1O
7 | 1609 | 10.4 | > 100 | COc1cc(COc2ccc(C(=O)N/N=C/c3ccc(OC)c(OC)c3OC)cc2)cc(OC)c1OC
8 | 1365 | 10.4 | > 100 | COc1cc(/C=N/NC(=O)c2ccc(OCc3cc(OC)c(OC)c(OC)c3)cc2)cc(OC)c1OC
9 | 1819 | 9.3 | > 100 | COc1cc(COc2ccc(C(=O)N/N=C/c3cccc(O)c3)cc2)cc(OC)c1OC
10 | 26 | 9.6 | > 100 | COc1cc(COc2ccc(C(=O)N/N=C/c3ccccc3O)cc2)cc(OC)c1OC
11 | 3056 | 18.7 | > 100 | COc1cc(COc2ccc(C(=O)N/N=C/c3ccc(O)cc3)cc2)cc(OC)c1OC
12 | 2562 | 90.6 | 40 (≈ 227 µM) | O=C1O[C@H]([C@@H](O)CO)C(O)=C1O [ASCORBIC ACID]
13 | 2837 | 54.8 | 99.7 (≈ 452 µM) | Cc1cc(C(C)(C)C)c(O)c(C(C)(C)C)c1 [BUTYLATED HYDROXYTOLUENE]
